Experimental data as given in patent publication US20260272902A1, “C[…] ACID SALT FORM OF A CCR6 ANTAGONIST” (Idorsia Pharmaceuticals Ltd, priority 2022, published 2026).

Test: Gravimetric vapor sorption (GVS) analysis / hygroscopicity
Format: physicochemical
Details: GVS at 25° C., FIG. 4
Procedure: Gravimetric vapor sorption analysis was performed with SPS 100n (ProUmid GmbH & Co. KG). An appropriate amount of the sample was placed into a tared aluminum pan without any pre-treatment. The analysis was run at a temperature of 25° C. with the following humidity program: 40%-0%-95%-40% in steps of 5% with maximum equilibration time of 24 h at each step. Analyzing software was ProUmid Excel template #SPS_4_3_23_E2010_drycorr.xltm.

Substance: 2-(3-{5-[(R)-(1,3-dimethyl-azetidin-3-yl)-hydroxy-(4-isopropyl-phenyl)-methyl]-pyridin-3-yl}-[1,2,4]oxadiazol-5-yl)-propan-2-ol adipic acid salt
- Hygroscopicity classification acc. to Eur. Phar.: is classified as non-hygroscopic acc. to Eur. Phar.
- Hygroscopicity: water uptake (between 40% and 80% RH): Less than 0.1% water uptake between 40% and 80% RH. Sample
